{"source": "patent US9919055B2", "about": "“Sugar-linker-drug conjugates” (Arizona Board of Regents on Behalf of Arizona State …, priority 2013, dated 2018)", "key": {"DU 145(MTX) cells": {"tested_on": "DU 145(MTX) cells", "assay": "Sensitivity of methotrexate resistant cell line DU 145(MTX) versus parental DU 145 cells", "type": "cell-based, human", "protocol": "(§1) A methotrexate resistant cell line. DU 145(MTX) was developed from parental DU 145 cells by exposure to increasing concentrations (starting at 0.1 μM) of methotrexate over a period of 6 months. DU 145(MTX) was at least 250-fold less sensitive to methotrexate than parental cells."}, "[1]": {"tested_on": "MTX Resistant DU-145 Cells", "assay": "In vitro cell growth inhibition test (MTT assay, cell viability)", "type": "cell-based, human", "conditions": "72 h incubation, DU-145-MTX cells", "protocol": "as §1\nThe human prostate cancer cell lines DU-145 (ATCC) was cultured in MEM media with glutamine and supplemented with 10% fetal bovine serum, penicillin (100 U/mL) and streptomycin ([…]) in air enriched with 5% CO2 at 37° C.\nCell viability was determined using the MTT assay. Briefly, cells were seeded in 96-well plates at a density of 3000 cells per well in 0.1 mL MEM media supplemented with 10% fetal bovine serum, and test compounds were concomitantly added in a concentration range of 0.001-1000 μM. Dilutions were made using the culture medium from 1 mM stock solutions of the drugs in anhydrous DMSO. Controls were treated with an equivalent amount of solvent, diluted as above, to assess the absence of toxicity due to the solvent. After 72 h of incubation, 15 μL of 5 mg mL^−1 MTT dye (3-[4,5-dimethylthiazol-2-yl]-2,5-diphenyltetrazolium bromide, sigma) was added for 4 h at 37° C. Media was removed and the monolayer suspended in 0.15 mL of DMSO, after which the absorbance at 570 nm was measured using a microplate reader. The control value corresponding to untreated cells was defined as 100% and the viability of treated samples was expressed as a percentage of the control."}}, "data": [{"smiles": "CN(Cc1cnc2nc(N)nc(N)c2n1)c1ccc(C(=O)N[C@@H](CCC(=O)O)C(=O)O)cc1", "note": "[Methotrexate (MTX), Methotrexate, reference compound]", "values": [{"measurement": "fold less sensitive to methotrexate than parental cells", "setting": "DU 145(MTX) cells", "value": "at least 250 fold"}, {"measurement": "DU-145-MTX (% cell survival)", "setting": "[1]; 100 nM test compound", "value": 82, "unit": "%"}, {"measurement": "DU-145-MTX (% cell survival)", "setting": "[1]; 1 μM test compound", "value": 84, "unit": "%"}, {"measurement": "DU-145-MTX (% cell survival)", "setting": "[1]; 10 μM test compound", "value": 83, "unit": "%"}]}]}
